In patent US8703427B2, “Biological materials and uses thereof” (PhotoBiotics Limited, priority 2005, dated 2014):

Columns and labels:
Barrett's mucosal cancer = conditions: clinical PDT; cited from earlier work
Her-2 receptor (human) = Her-2 receptor (human) (UniProt P04626); experiment: cell-based or functional assay
KB cells [1] = experiment: Immunofluorescent microscopy, HER-2-negative cells; type: cell-based, human; conditions: 1 hour incubation; images and emission spectra
Method: FIG. 24—Immunofluorescent microscopy of C6.5-PPa photo-immunoconjugate Antigen negative KB cells (A-D) or antigen positive SKOV3 cells (E-J) were incubated with free PPa or C6.5-PPa photo-immunoconjugate for 1 hour. Images and emission spectra were recorded.
• 1. Round coverslips were washed in ethanol and rinsed in PBS. Coverslips were then placed in 12-well tissue culture plates. • 2. SKOV3 cells were trypsinised and washed with PBS. The cell pellet was resuspended in McCoy's media and cells were seeded onto the coverslips at 2×10^5 cells/ml. The cells were incubated overnight at 37° C. and 5% CO2. • 3. The coverslips with the adherent cells were rinsed carefully in PBS and either C6-PPa or PBS was added to the wells. The cells were incubated at 37° C. and 5% CO2 for 30 minutes after which time they were washed carefully with PBS. • 4. The cells were fixed onto the coverslips by incubating in 2 ml 4% paraformaldehyde for 60 minutes at room temperature. After this time, the coverslips were washed with PBS and inverted cell-side down onto glass slides. The edges of the coverslips were then sealed using nail varnish. • 5. Fluorescence imaging was then performed using an Ar+ laser (418 nm) as excitation source, using a Leica laser scanning confocal microscope, images are shown in FIGS. 20 and 24, and the emission spectrum is shown in FIGS. 21 and 24.

[2] = Fluorescence of conjugates in PBS (excitation 410 nm, emission 680 nm); type: physicochemical; conditions: measured in PBS buffer
Method: • 1. Serial dilutions (halving concentrations) of the conjugates were made in PBS and the fluorescence was measured at an excitation wavelength of 410 nm and an emission wavelength of 680 nm. • 2. These were compared to free PPa in PBS. Examples are shown for c6.5 scFv-PPa (FIG. 11) and MFE scFv-PPA (+/− benzoic acid) (FIG. 12)

[3] = test system: Basal cell cancer of skin; conditions: clinical PDT, topical; cited from earlier work
[4] = test system: Barrett's oesophagus cancer; conditions: clinical PDT, systemic; cited from earlier work
[5] = test system: Chest wall recurrence in breast cancer; conditions: clinical PDT; cited from earlier work
Oral cancer = conditions: clinical PDT, over 5-53 months; cited from earlier work
[6] = in vivo; cited from earlier work
KB cells [7] = experiment: In vitro PDT cell killing (Cytotox-96), antigen-negative cells; type: cell-based, human; conditions: 30 min incubation, laser light 2 min, 1.4 J/cm^2, cell kill assay after 48 hours
Method: (§1) • 1. […] The flask was incubated at 37° C., 5% CO2 for 15 mins or until the cells had detached from the flask. The cells were then placed in a 50 ml Falcon tube and the trypsin deactivated by adding 15 ml DMEM or McCoy's medium. • 3. Cells (20 μl) were taken out of the tube and placed on a haemocytometer for counting. The remaining cells were harvested at 1800 g for 10 min at room temperature and the pellet gently resuspended in 1 ml of DMEM or McCoy's medium. The cells were thoroughly resuspended and a further 19 ml of DMEM or McCoy's medium added. The cells were diluted in DMEM or McCoy's medium accordingly to give 2×10^6 cells/ml. Cells (50 μl) were then added to each well of a 96 well plate and incubated overnight at 37° C. and 5% CO2. • 4. […] Cells were washed once with PBS and 50 μl of the conjugate added to wells in quadruplicate. Control wells were also included (wells with conjugate added but not exposed to light, and wells with neither conjugate added nor exposed to light). […] Cells were incubated in the conjugate or free PS (concentration varies) for 30 min at 37° C., 5% CO2 and then washed 3 times with PBS. […] The PBS was removed from each well and 100 μl of DMEM or McCoy's medium added. The plates were loosely wrapped in foil, but covered adequately so that no ambient light could enter.

SKOV3 cells = experiment: In vitro PDT cell killing (Cytotox-96), antigen-positive cells; type: cell-based, human; conditions: 30 min incubation, laser light 2 min, 1.4 J/cm^2, cell kill assay after 48 hours
Method: as §1

[8] = test system: vision loss associated with AMD; conditions: PDT compared to the placebo control; cited from earlier work
Bladder cancer = conditions: clinical PDT; cited from earlier work

porfimer sodium
conversion to normal epithelium (Barrett's mucosal cancer): 75% conversion to normal | tumours (Barrett's mucosal cancer): eliminated

C6.5 scFv-Verteporfin (Visudyne™) conjugate
IC50 of in vitro PDT cell killing on antigen-positive SKOV3 cells (Her-2 receptor (human)): 2.2 µM

Pyropheophorbide a [PPa]
uptake of PPa, KB cells vs SKOV3 cells (KB cells [1]): over 2 fold | fluorescence / photophysical properties [2]: does not fluoresce significantly

NCC(=O)CCC(=O)O [ALA, 5-aminolaevulinic acid]
complete response [3]: 90% complete response | High-grade dysplasia [4]: erradicated in all patients

Dihematoporphyrin ether
complete response [5]: 20% complete response, | partial response [5]: 45% partial response | complete response (Oral cancer): 87% complete response

Oc1cccc(-c2c3nc(c(-c4cccc(O)c4)c4ccc([nH]4)c(-c4cccc(O)c4)c4nc(c(-c5cccc(O)c5)c5ccc2[nH]5)CC4)C=C3)c1 [Foscan™, meta-tetrahydroxyphenyl chlorin]
skin photosensitivity [6]: about 2 weeks

benzoporphyrin derivative mono acid [Verteporfin (Visudyne™)]
IC50 (KB cells [7]): 10 µM | IC50 (SKOV3 cells): 15.3 µM | recovering vision loss associated with AMD [8]: more effective

Hematoporphyrin derivative
alive after 5 years (Bladder cancer): 30% alive after 5 years | complete response (Bladder cancer): 74% complete response,
